Data on 20 molecules can be found in patent US11919901B2 (Syndax Pharmaceuticals, Inc., priority 2021, dated 2024).

Molecules are shown by their SMILES. A value given as a limit tells only on which side of the number the result lay.

The target in this assay is Menin-MLL (Homo sapiens (Human), UniProt O00255). Put plainly: Determination of binding constants (Ki) to Menin-MLL (HTRF). The settings on record: HTRF; 0.25 nM H-FL-Menin, 3.2 nM FITC-MLL-4-43, 24 hr incubation; read-out: Menin-MLL Ki HTRF Assay: Ki.
Chain of Menin-MLL (O00255 whole entry): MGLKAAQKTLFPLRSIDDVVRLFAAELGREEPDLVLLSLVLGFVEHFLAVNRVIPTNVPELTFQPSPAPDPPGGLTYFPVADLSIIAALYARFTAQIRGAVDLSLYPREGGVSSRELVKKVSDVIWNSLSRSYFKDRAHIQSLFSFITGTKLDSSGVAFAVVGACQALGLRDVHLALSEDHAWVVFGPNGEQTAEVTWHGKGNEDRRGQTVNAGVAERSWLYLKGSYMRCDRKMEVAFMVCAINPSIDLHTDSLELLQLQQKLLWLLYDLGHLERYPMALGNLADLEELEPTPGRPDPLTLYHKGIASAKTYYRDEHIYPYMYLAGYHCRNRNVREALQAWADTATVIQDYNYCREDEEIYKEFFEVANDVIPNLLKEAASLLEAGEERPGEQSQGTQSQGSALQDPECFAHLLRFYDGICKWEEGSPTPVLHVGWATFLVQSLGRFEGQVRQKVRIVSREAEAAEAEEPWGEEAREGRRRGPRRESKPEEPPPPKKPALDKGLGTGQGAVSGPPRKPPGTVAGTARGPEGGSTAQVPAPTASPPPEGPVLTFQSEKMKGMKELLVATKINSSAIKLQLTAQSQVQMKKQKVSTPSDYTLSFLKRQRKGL

For the molecule `CC(C)N(C(=O)c1cc(F)ccc1Oc1cncnc1N1CC2(CCN(C[C@@H]3CC[C@@H](NS(C)(=O)=O)CO3)CC2)C1)[C@H]1CCOC1` [Compound 173, 5-Fluoro-N-isopropyl-2-((4-(7-(((2S,5R)-5-(methylsulfonamido)tetrahydro-2H-pyran-2-yl)methyl)-2,7-diazaspiro[3.5]nonan-2-yl)pyrimidin-5-yl)oxy)-N-((S)-tetrahydrofuran-3-yl)benzamide], the Ki was below 1 nM.

Take `CC(C)N(C(=O)c1cc(F)ccc1Oc1cncnc1N1CC2(CCN(C[C@@H]3CC[C@@H](NS(=O)(=O)C(C)C)CO3)CC2)C1)[C@H]1CCOC1` [Compound 174, 5-Fluoro-N-isopropyl-2-((4-(7-(((2S,5R)-5-((1-methylethyl)sulfonamido)tetrahydro-2H-pyran-2-yl)methyl)-2,7-diazaspiro[3.5]nonan-2-yl)pyrimidin-5-yl)oxy)-N-((S)-tetrahydrofuran-3-yl)benzamide]: the Ki is below 1 nM.

Consider `CC(C)N(C(=O)c1cc(F)ccc1Oc1cncnc1N1CC2(CCN(C[C@@H]3CC[C@@H](NS(=O)(=O)N4CCCC4)CO3)CC2)C1)[C@H]1CCOC1` [Compound 178, 5-Fluoro-N-isopropyl-2-((4-(7-(((2S,5R)-5-(pyrrolidine-1-sulfonamido)tetrahydro-2H-pyran-2-yl)methyl)-2,7-diazaspiro[3.5]nonan-2-yl)pyrimidin-5-yl)oxy)-N-((S)-tetrahydrofuran-3-yl)benzamide], for which the Ki is below 1 nM.

For the molecule `CCN(C)S(=O)(=O)N[C@@H]1CC[C@@H](CN2CCC3(CC2)CN(c2ncncc2Oc2ccc(F)cc2C(=O)N(C(C)C)[C@H]2CCOC2)C3)OC1` [Compound 179, 2-((4-(7-(((2S,5R)-5-((N-Ethyl-N-methylsulfamoyl)amino)tetrahydro-2H-pyran-2-yl)methyl)-2,7-diazaspiro[3.5]nonan-2-yl)pyrimidin-5-yl)oxy)-5-fluoro-N-isopropyl-N-((S)-tetrahydrofuran-3-yl)benzamide], the Ki is below 1 nM.

As for `CCNS(=O)(=O)N[C@@H]1CC[C@@H](CN2CCC3(CC2)CN(c2ncncc2Oc2ccc(F)cc2C(=O)N(C(C)C)[C@H]2CCOC2)C3)OC1` [Compound 180, 2-((4-(7-(((2S,5R)-5-((N-Ethylsulfamoyl)amino)tetrahydro-2H-pyran-2-yl)methyl)-2,7-diazaspiro[3.5]nonan-2-yl)pyrimidin-5-yl)oxy)-5-fluoro-N-isopropyl-N-((S)-tetrahydrofuran-3-yl)benzamide], the Ki is below 1 nM.

With `CC(C)N(CCC#N)C(=O)c1cc(F)ccc1Oc1cncnc1N1CC2(CCN(C[C@@H]3CC[C@@H](NS(=O)(=O)N4CCC4)CO3)CC2)C1` [Compound 184, 2-((4-(7-(((2S,5R)-5-(Azetidine-1-sulfonamido)tetrahydro-2H-pyran-2-yl)methyl)-2,7-diazaspiro[3.5]nonan-2-yl)pyrimidin-5-yl)oxy)-N-(2-cyanoethyl)-5-fluoro-N-isopropylbenzamide], the Ki is below 1 nM.

Take `CCS(=O)(=O)N[C@@H]1CC[C@@H](CN2CCC3(CC2)CN(c2ncnnc2Oc2ccc(F)cc2C(=O)N(CC(F)F)C(C)C)C3)OC1` [Compound 185, N-(2,2-Difluoroethyl)-2-((5-(7-(((2S,5R)-5-(ethylsulfonamido)tetrahydro-2H-pyran-2-yl)methyl)-2,7-diazaspiro[3.5]nonan-2-yl)-1,2,4-triazin-6-yl)oxy)-5-fluoro-N-isopropylbenzamide]: the inhibitory constant (Ki) was below 1 nM.

`CC(C)N(CC(F)F)C(=O)c1cc(F)ccc1Oc1nncnc1N1CC2(CCN(C[C@@H]3CC[C@@H](NS(=O)(=O)C4CC4)CO3)CC2)C1` [Compound 186, 2-((5-(7-(((2S,5R)-5-(Cyclopropanesulfonamido)tetrahydro-2H-pyran-2-yl)methyl)-2,7-diazaspiro[3.5]nonan-2-yl)-1,2,4-triazin-6-yl)oxy)-N-(2,2-difluoroethyl)-5-fluoro-N-isopropylbenzamide]: the Ki was below 1 nM.

Turning to `CC(C)N(CC(F)F)C(=O)c1cc(F)ccc1Oc1nncnc1N1CC2(CCN(C[C@@H]3CC[C@@H](NS(=O)(=O)c4cnn(C)c4)CO3)CC2)C1` [Compound 187, N-(2,2-Difluoroethyl)-5-fluoro-N-isopropyl-2-((5-(7-(((2S,5R)-5-((1-methyl-1H-pyrazole)-4-sulfonamido)tetrahydro-2H-pyran-2-yl)methyl)-2,7-diazaspiro[3.5]nonan-2-yl)-1,2,4-triazin-6-yl)oxy)benzamide], the Ki was below 1 nM.

Regarding `CCNS(=O)(=O)N[C@@H]1CC[C@@H](CN2CCC3(CC2)CN(c2ncnnc2Oc2ccc(F)cc2C(=O)N(CC(F)F)C(C)C)C3)OC1` [Compound 188, N-(2,2-Difluoroethyl)-2-((5-(7-(((2S,5R)-5-((N-ethylsulfamoyl)amino)tetrahydro-2H-pyran-2-yl)methyl)-2,7-diazaspiro[3.5]nonan-2-yl)-1,2,4-triazin-6-yl)oxy)-5-fluoro-N-isopropylbenzamide], the Ki was below 1 nM.

In the case of `CCS(=O)(=O)N[C@@H]1CC[C@@H](CN2CCC3(CC2)CN(c2ncnnc2Oc2ccc(F)cc2C(=O)N(CC(F)(F)F)C(C)C)C3)OC1` [Compound 190, 2-((5-(7-(((2S,5R)-5-(Ethylsulfonamido)tetrahydro-2H-pyran-2-yl)methyl)-2,7-diazaspiro[3.5]nonan-2-yl)-1,2,4-triazin-6-yl)oxy)-5-fluoro-N-isopropyl-N-(2,2,2-trifluoroethyl)benzamide], the Ki is below 1 nM.

`CC(C)N(CC(F)(F)F)C(=O)c1cc(F)ccc1Oc1nncnc1N1CC2(CCN(C[C@@H]3CC[C@@H](NS(=O)(=O)C4CC4)CO3)CC2)C1` [Compound 191, 2-((5-(7-(((2S,5R)-5-(Cyclopropanesulfonamido)tetrahydro-2H-pyran-2-yl)methyl)-2,7-diazaspiro[3.5]nonan-2-yl)-1,2,4-triazin-6-yl)oxy)-5-fluoro-N-isopropyl-N-(2,2,2-trifluoroethyl)benzamide]: the Ki was below 1 nM.

For the molecule `CC(C)N(CC(F)(F)F)C(=O)c1cc(F)ccc1Oc1nncnc1N1CC2(CCN(C[C@@H]3CC[C@@H](NS(=O)(=O)c4cnn(C)c4)CO3)CC2)C1` [Compound 192, 5-Fluoro-N-isopropyl-2-((5-(7-(((2R,5S)-5-((1-methyl-1H-pyrazole)-4-sulfonamido)tetrahydro-2H-pyran-2-yl)methyl)-2,7-diazaspiro[3.5]nonan-2-yl)-1,2,4-triazin-6-yl)oxy)-N-(2,2,2-trifluoroethyl)benzamide], the Ki is below 1 nM.

Regarding `CCS(=O)(=O)N[C@@H]1CC[C@@H](CN2CCC3(CC2)CN(c2ncnnc2Oc2ccc(F)cc2C(=O)N(C(C)C)C(C)C)C3)OC1` [Compound 195, 2-((5-(7-(((2S,5R)-5-(Ethylsulfonamido)tetrahydro-2H-pyran-2-yl)methyl)-2,7-diazaspiro[3.5]nonan-2-yl)-1,2,4-triazin-6-yl)oxy)-5-fluoro-N,N-diisopropylbenzamide], the Ki is below 1 nM.

Consider `CC(C)N(C(=O)c1cc(F)ccc1Oc1nncnc1N1CC2(CCN(C[C@@H]3CC[C@@H](NS(=O)(=O)c4cnn(C)c4)CO3)CC2)C1)C(C)C` [Compound 197, 5-Fluoro-N,N-diisopropyl-2-((5-(7-(((2S,5R)-5-((1-methyl-1H-pyrazole)-4-sulfonamido)tetrahydro-2H-pyran-2-yl)methyl)-2,7-diazaspiro[3.5]nonan-2-yl)-1,2,4-triazin-6-yl)oxy)benzamide], for which the inhibition constant (Ki) was below 1 nM.

Consider `CC(C)N(C(=O)c1cc(F)ccc1Oc1cncnc1N1CC2(CCN(C[C@@H]3CC[C@@H](NS(=O)(=O)N4CCC[C@H]4C)CO3)CC2)C1)[C@@H]1CCOC1` [Compound 204, 5-Fluoro-N-isopropyl-2-((4-(7-(((2S,5R)-5-(((R)-2-methylpyrrolidine)-1-sulfonamido)tetrahydro-2H-pyran-2-yl)methyl)-2,7-diazaspiro[3.5]nonan-2-yl)pyrimidin-5-yl)oxy)-N-((R)-tetrahydrofuran-3-yl)benzamide], for which the Ki is below 1 nM.

Regarding `CC(C)N(C(=O)c1cc(F)ccc1Oc1cncnc1N1CC2(CCN(C[C@@H]3CC[C@@H](NS(=O)(=O)N4CCC[C@@H]4C)CO3)CC2)C1)[C@@H]1CCOC1` [Compound 205, 5-Fluoro-N-isopropyl-2-((4-(7-(((2S,5R)-5-(((S)-2-methylpyrrolidine)-1-sulfonamido)tetrahydro-2H-pyran-2-yl)methyl)-2,7-diazaspiro[3.5]nonan-2-yl)pyrimidin-5-yl)oxy)-N-((R)-tetrahydrofuran-3-yl)benzamide], the Ki is below 1 nM.

As to `CC(C)N(C(=O)c1cc(F)ccc1Oc1cncnc1N1CC2(CCN(C[C@@H]3CC[C@@H](NS(=O)(=O)N4CCC[C@@H]4C)CO3)CC2)C1)C1CCOC1` (stereo partly drawn) [Compound 206, 5-Fluoro-N-isopropyl-2-((4-(7-(((2S,5R)-5-(((S)-2-methylpyrrolidine)-1-sulfonamido)tetrahydro-2H-pyran-2-yl)methyl)-2,7-diazaspiro[3.5]nonan-2-yl)pyrimidin-5-yl)oxy)-N-((S)-tetrahydrofuran-3-yl)benzamide], the Ki was below 1 nM.

Take `CC(C)N(C(=O)c1cc(F)ccc1Oc1cncnc1N1CC2(CCN(C[C@@H]3CC[C@@H](NS(=O)(=O)N4CCC[C@H]4C)CO3)CC2)C1)C1CCOC1` (stereo partly drawn) [Compound 207, 5-Fluoro-N-isopropyl-2-((4-(7-(((2S,5R)-5-(((R)-2-methylpyrrolidine)-1-sulfonamido)tetrahydro-2H-pyran-2-yl)methyl)-2,7-diazaspiro[3.5]nonan-2-yl)pyrimidin-5-yl)oxy)-N-((S)-tetrahydrofuran-3-yl)benzamide]: the Ki is below 1 nM.

For the molecule `COC[C@H]1CCCN1S(=O)(=O)N[C@@H]1CC[C@@H](CN2CCC3(CC2)CN(c2ncncc2Oc2ccc(F)cc2C(=O)N(C(C)C)C(C)C)C3)OC1` [Compound 212, 5-Fluoro-N,N-diisopropyl-2-((4-(7-(((2S,5R)-5-(((R)-2-(methoxymethyl)pyrrolidine)-1-sulfonamido)tetrahydro-2H-pyran-2-yl)methyl)-2,7-diazaspiro[3.5]nonan-2-yl)pyrimidin-5-yl)oxy)benzamide], the inhibitory constant (Ki) is below 1 nM.
